row,SMILES,melting point [°C]
1,CCOCc1nc2c(N)nc3cc(OCc4cccc(OC)c4)ccc3c2n1CC(C)(C)NS(C)(=O)=O,221 to 222
2,COC(=O)c1cn(CC(F)(F)F)c2c(C)cc(F)cc2c1=O,168 to 171
3,NCCNCCN1CCC(c2cn(-c3ccc(F)cc3)c3ccc(Cl)cc23)CC1,150
4,c1cc(CN2CCCC2)cc(OCCCNc2nc3ccccc3s2)c1,91 to 92
5,O=C(O)C=CC1CC1(c1cccc(C(F)(F)F)c1)c1cccc(C(F)(F)F)c1 (stereo not drawn),147 to 148
6,CC(C)(C)CC(C)(C)c1cc(-n2nc3ccc(C(F)(F)F)cc3n2)c(O)c(C(C)(C)c2ccccc2)c1,119 to 121
7,CCC1(C)CC(S(=O)(=O)C(Cl)(Cl)c2cccc(F)c2)=NO1 (stereo not drawn),100
8,COC(=O)Cn1c(-c2ccc(Cl)cc2)nc2cccnc21,198 to 200
9,COc1ccc(-c2ccnc3c(C(N)=O)ncn23)cc1OC,262 to 265
10,COc1c(NOCc2ccc(C(C)(C)C)cc2)ccnc1C,113
11,O=C(NNc1ccccc1)c1nc(Cl)c(Cl)[nH]1,229 to 230
12,CC(C(SC(=S)N(C)C)c1ccccc1)[N+](=O)[O-] (stereo not drawn),92 to 94
13,CCCc1ccccc1OCCCOc1ccc2c(=O)cc(C(=O)OCC)oc2c1,73 to 75
14,O=P(O)(O)C(O)(CCc1nn(-c2ccc(F)cc2)cc1-c1ccc(Cl)cc1)P(=O)(O)O,223
15,Cc1ccc2c3c(ccc2n1)OCC(CN1CC=C(c2c[nH]c4ccccc24)CC1)O3 (stereo not drawn),210
16,Cc1nc2ccccc2nc1OCc1nc(Cl)cc(N2CCCC2)n1,136 to 140
17,CCOc1cc(CCC2OC(=O)NC2=O)ccc1OCc1ccccc1 (stereo not drawn),143 to 144
18,Cc1cc(N)nc(CCc2nc3cc(-c4ccc(C(F)(F)F)cc4)cnc3[nH]2)c1,170
19,COc1ccc(/C=C/CN2CCN(C3c4ccccc4CCc4ncccc43)CC2)cc1[N+](=O)[O-] (stereo not drawn),159 to 161
20,COc1ccc(-c2cc(N3CCCCC3)c(C#N)c3c2-c2ccccc2C3=O)cc1,210 to 212
21,COC(=O)c1csc(-c2ccc(C#N)cc2)n1,107 to 108
22,CCCCCCCCCCCCOC(=O)NCCC(=O)NC(Cc1c[nH]cn1)C(=O)O (stereo not drawn),168 to 172
23,CCOC(=O)c1cccc2c1Cc1c-2[nH]c2ccc(Br)cc12,198 to 200

row,SMILES,melting point [°C]
1,Cc1ccc(C#CC(C)N(O)C(N)=O)cc1 (stereo not drawn),144
2,O=C(Oc1ccc2c(c1)CCCC2)Oc1ccc2c(c1)CCCC2,112
3,O=C(O)CSc1cc(=Nc2ccccc2)ss1,147
4,Cc1ccc(-c2cn(C)c(-c3ccc(C)s3)n2)s1,138 to 140
5,O=C(c1cccnc1)c1cccc([N+](=O)[O-])c1,73 to 76
6,O=Cc1ccc(C(=O)Nc2ccc(OCC(F)(F)C(F)F)cc2)cc1,152
7,CN1CCC(NC(c2cccc(C(F)(F)F)c2)c2nc3ccccc3[nH]2)CC1 (stereo not drawn),90
8,Cn1c(=O)n(-c2cc([N+](=O)[O-])c(Cl)cc2F)c(=S)n1C,146
9,CC(C)(C)OC(=O)c1ccc(C#Cc2cnc3nc(NC(=O)C(C)(C)C)nc(O)c3c2)cc1,> 250
10,CCOC(=O)/C=C(\c1ccc(F)cc1)c1cc(OC)c(OC)c(OC)c1,133 to 135
11,CC(=NNC(=O)c1cccc(C(F)(F)F)c1)c1cccnc1,183
12,CC(C)(C)OC(=O)N1CCN(C(=O)SCc2ccc(O[Si](C)(C)C(C)(C)C)cc2)CC1,53 to 54
13,CC(=O)OCc1c(-c2cc(Nc3cc(CN4CCC4)n(C)n3)c(=O)n(C)n2)cccc1-n1ncc2cc(C(C)(C)C)cc(F)c2c1=O,214 to 217
14,Cc1sc2nc(SCCCN3CCN(c4nc5ccccc5s4)CC3)n(N)c(=O)c2c1C,200 to 201
15,OCC1OC(n2cnc3c(NCC4(c5ccccc5)CCCCC4)ncnc32)C(O)C1O (stereo not drawn),87 to 89
16,N#Cc1cc(-c2nc3cncnc3s2)ccc1Sc1ccccc1F,178 to 180
17,CCOC(=O)c1cc2cc(F)cc(Br)c2[nH]1,125
18,Cc1nc2ccc(Nc3nccc(-c4ccc(N5CCNCC5)nc4)n3)cc2[nH]1,245 to 250
19,CC(C)(C)OC(=O)c1cc([N+](=O)[O-])cc([N+](=O)[O-])c1N(CCO)CCCl,106 to 107
20,COc1cc(/C=C/C(=O)CC(=O)c2ccc(O)c(OC)c2)ccc1O,170 to 172
21,O=C1Nc2ccc([N+](=O)[O-])cc2Cn2nnnc21,276 to 279
22,O=C(c1ccc2c(c1)OC(c1cccc(Cl)c1)(c1cccc(Cl)c1)O2)N1CCCCC1,54
23,CNc1ccccc1CS(=O)c1nccn1-c1ccccn1 (stereo not drawn),135 to 137

row,SMILES,melting point [°C]
1,Clc1ccccc1Oc1c(Cl)ncnc1Cl,76 to 77
2,O=S(=O)(c1ccccc1F)n1ccc2c(OCc3ccccc3)cccc21,117 to 120
3,CC(CCC(=O)NCCCCCC(=O)NCCCCCO)C1CCC2C3C(O)CC4CC(O[Si](C)(C)C(C)(C)C)CCC4(C)C3CC(O)C12C (stereo not drawn),146 to 148
4,Cc1ccc(NC(=O)c2ccccc2N)cc1C(F)(F)F,138 to 140
5,CC(C)[C@H](OCc1c(F)cccc1F)[C@H]1[C@H]([N+](=O)[O-])[C@H](c2ccccc2)N[C@@H]1C(=O)NCC(=O)O,80 to 81
6,COC(=O)C1C(c2ccc(I)cc2)CC2CCC1N2C (stereo not drawn),101 to 102
7,CCCC12CCC3C4CCC(=O)C=C4CCC3C1CCC2OCc1ccccc1 (stereo not drawn),198 to 200
8,CCOC(=O)c1ccc(CCNS(=O)(=O)c2ccc(Cl)cc2)cc1,88
9,O=c1nc(N(CCO)c2ccccc2)sc2ncccc12,168 to 169
10,CCCCOC(C=Cc1ccc(C(=O)O)cc1)c1ccc2c(c1)C(C)(C)CCC2(C)C (racemic),78 to 80
11,CCCCCCCCCCCCC(Oc1ccc(NS(=O)(=O)CCCC)cc1)C(=O)Nc1c(C)cc(C)c(-c2n[nH]c3cc(C(C)(C)C)nn23)c1C (stereo not drawn),117 to 120
12,CNC(c1ccnc(F)c1)C(O)c1cccc(C(F)(F)F)c1 (stereo not drawn),99 to 102
13,CCCc1ccc2nc(Cl)cn2n1,73.9 to 80
14,COc1ccc2c(c1)c(CC(=O)OCc1ccc(Cl)cc1)c(C)n2C(=O)c1ccc(Cl)cc1,113 to 114
15,Cc1nc(NCCc2ccccc2)c2c(n1)N(c1ccccc1)CC2,105 to 106
16,CCCCCCCCCCCCCCCCSCC(CNS(=O)(=O)CCCCl)NC(=O)OC(C)(C)C (stereo not drawn),100 to 102
17,NC(=O)c1ccc(-c2ccc(C(CC3CCOCC3)c3ccc(S(=O)(=O)C4CC4)cc3)[nH]2)nc1 (stereo not drawn),136 to 138
18,C[C@@H](n1cnc2cc(C(F)(F)F)ccc2c1=O)[C@](O)(Cn1cncn1)c1ccc(Cl)cc1Cl,158 to 160
19,Cc1cc(F)cc2c1CC/C2=C\C(=O)O,243 to 246
20,C[C@H]1CCCC(C)(C)[C@@H]1[C@H](O)c1ccccc1,32 to 34
21,O=C(Nc1cccc(C(F)(F)F)c1)N1CCCCc2cc(Oc3cc(Cl)ncn3)ccc21,120
22,CC1=C(C(=O)OCCOc2ccccc2)C(c2ccccc2C(F)(F)F)c2c(ccnc2OC(C)C)N1 (stereo not drawn),110 to 113
